Experimental data taken from ChEMBL document CHEMBL4342438, “Discovery of pyrazolone spirocyclohexadienone derivatives with potent antitumor activity” (Bioorg Med Chem Lett, 2020).

What was measured:
A549 = assay: Antiproliferative activity against human A549 cells assessed as reduction in cell growth measured after 72 hrs by CCK8 assay; assay type: functional, cell-based; conditions: A549, 72 h
HCT-116 = assay: Antiproliferative activity against human HCT116 cells assessed as reduction in cell growth measured after 72 hrs by CCK8 assay; assay type: functional, cell-based; conditions: HCT-116, 72 h
MDA-MB-231 [1] = assay: Antiproliferative activity against human MDA-MB-231 cells assessed as reduction in cell growth measured after 72 hrs by CCK8 assay; assay type: functional, cell-based; conditions: MDA-MB-231, 72 h
MDA-MB-231 [2] = assay: Induction of cell cycle arrest in human MDA-MB-231 cells assessed as accumulation at G1 phase at 1 uM measured after 24 hrs by flow cytometry analysis (reference value: 43.68%); assay type: functional
MDA-MB-231 [3] = assay: Induction of cell cycle arrest in human MDA-MB-231 cells assessed as accumulation at G2 phase at 1 uM measured after 24 hrs by flow cytometry analysis (reference value: 23.69%); assay type: functional
MDA-MB-231 [4] = assay: Induction of cell cycle arrest in human MDA-MB-231 cells assessed as accumulation at S phase at 1 uM measured after 24 hrs by flow cytometry analysis (reference value: 32.63%); assay type: functional
MDA-MB-231 [5] = assay: Induction of cell cycle arrest in human MDA-MB-231 cells assessed as accumulation at G1 phase at 2 uM measured after 24 hrs by flow cytometry analysis (reference value: 43.68%); assay type: functional
MDA-MB-231 [6] = assay: Induction of cell cycle arrest in human MDA-MB-231 cells assessed as accumulation at G2 phase at 2 uM measured after 24 hrs by flow cytometry analysis (reference value: 23.69%); assay type: functional
MDA-MB-231 [7] = assay: Induction of cell cycle arrest in human MDA-MB-231 cells assessed as accumulation at S phase at 2 uM measured after 24 hrs by flow cytometry analysis (reference value: 32.63%); assay type: functional
MDA-MB-231 [8] = assay: Induction of apoptosis in human MDA-MB-231 cells assessed as apoptotic cells at 2.5 uM measured after 48 hrs by annexinV-FITC/propidium iodide staining based flow cytometry analysis (reference value: 5.62%); assay type: functional
MDA-MB-231 [9] = assay: Induction of apoptosis in human MDA-MB-231 cells assessed as apoptotic cells at 5 uM measured after 48 hrs by annexinV-FITC/propidium iodide staining based flow cytometry analysis (reference value: 5.62%); assay type: functional
MDA-MB-231 [10] = assay: Induction of apoptosis in human MDA-MB-231 cells assessed as apoptotic cells at 10 uM measured after 48 hrs by annexinV-FITC/propidium iodide staining based flow cytometry analysis (reference value: 5.62%); assay type: functional
MDA-MB-231 [11] = assay: Induction of apoptosis in human MDA-MB-231 cells assessed as increase in apoptotic cells measured after 48 hrs by annexinV-FITC/propidium iodide staining based flow cytometry analysis; assay type: functional, cell-based
HUVEC = assay: Cytotoxicity against HUVEC assessed as inhibition of cell growth measured after 72 hrs by CCK8 assay; assay type: cell-based; conditions: Homo sapiens

Row | SMILES | IC50 (A549) [µM] | IC50 (HCT-116) [µM] | IC50 (MDA-MB-231 [1]) [µM] | further results
1 | CC1=NN(c2ccc(Cl)cc2)C(=O)C12C=CC(=O)C=C2c1ccc(C)cc1 (stereo unspecified) | 33.4 | 10.3 | 14.3 | 
2 | CC1=NN(c2cccc(Cl)c2)C(=O)C12C=CC(=O)C=C2c1ccccc1 (stereo unspecified) | 18.8 | 7 | 30.1 | 
3 | CC1=NN(c2ccc(C)cc2)C(=O)C12C=CC(=O)C=C2c1cccc(C)c1 (stereo unspecified) | 22.5 | 8.34 | 19.4 | 
4 | CC1=NN(c2cccc(Cl)c2)C(=O)C12C=CC(=O)C=C2c1ccc(C)cc1 (stereo unspecified) | 9.05 | 2.4 to 2.89 | 3.82 | Activity (MDA-MB-231 [2]): 45.59 - 49.59%; Activity (MDA-MB-231 [3]): 21.23%; Activity (MDA-MB-231 [4]): 29.18%; Activity (MDA-MB-231 [5]): 68.23%; Activity (MDA-MB-231 [6]): 17.5%; Activity (MDA-MB-231 [7]): 14.27%; Activity (MDA-MB-231 [8]): 9.7%; Activity (MDA-MB-231 [9]): 12.2%; Activity (MDA-MB-231 [10]): 47.23%; Activity (MDA-MB-231 [11]): Dose-dependent effect; IC50 (HUVEC): 5.41 µM
5 | CC1=NN(c2ccc(C)cc2)C(=O)C12C=CC(=O)C=C2c1ccc(C)cc1 (stereo unspecified) | 37 | 9.71 | 5.11 | 
6 | CC1=NN(c2ccccc2)C(=O)C12C=CC(=O)C=C2c1ccc(C)cc1 (stereo unspecified) | 19.3 | 27.1 | 91.9 | 
7 | CC1=NN(c2ccc(Br)cc2)C(=O)C12C=CC(=O)C=C2c1ccc(C)cc1 (stereo unspecified) | 27.4 | 10.6 | 15.9 | 
8 | CC1=NN(c2ccc(Cl)cc2)C(=O)C12C=CC(=O)C=C2c1cccc(C)c1 (stereo unspecified) | 38.4 | 13.3 | 26.9 | 
9 | CC1=NN(c2ccccc2)C(=O)C12C=CC(=O)C=C2c1cccc(C)c1 (stereo unspecified) | 16.5 | > 100 | 85.8 | 
10 | CC1=NN(c2ccc(Cl)cc2)C(=O)C12C=CC(=O)C=C2c1ccccc1 (stereo unspecified) | > 100 | > 100 | > 100 | 
11 | CC1=NN(c2ccc(Br)cc2)C(=O)C12C=CC(=O)C=C2c1cccc(C)c1 (stereo unspecified) | 45.4 | > 100 | 2.89 | 
12 | CC1=NN(c2ccc(C)cc2)C(=O)C12C=CC(=O)C=C2c1ccccc1 (stereo unspecified) | 46.3 | 16.5 | 46.6 | 
13 | CC1=NN(c2cccc(Cl)c2)C(=O)C12C=CC(=O)C=C2c1cccc(C)c1 (stereo unspecified) | 20.1 | 3.74 | 22.3 | 
14 | CC1=NN(c2ccc(Br)cc2)C(=O)C12C=CC(=O)C=C2c1ccccc1 (stereo unspecified) | > 100 | > 100 | > 100 | 
15 | CC1=NN(c2ccccc2)C(=O)C12C=CC(=O)C=C2c1ccccc1 (stereo unspecified) | 16.5 | 17.8 | 27.4 | 
